PubChem BioAssay (NCI)
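All cell lines were grown in 96-well plates and treated with compound for 48 hours. GI50: concentration for 50% inhibition of growth. TGI marks complete inhibition of growth.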

What was measured:
Test in all cases: growth of human tumour cells (NCI), 48 h
[1] = system: A549 NSCLC
[2] = system: CCRF-CEM leukemia
[3] = system: EKVX NSCLC
[4] = system: HCT-116 colon
[5] = system: HOP-62 NSCLC
[6] = system: MDA-MB-435
[7] = system: SF-539 CNS
[8] = system: SNB-19 CNS
[9] = system: TK-10 renal
[10] = system: MDA-N

SMILES	TGI [1] [µM]	TGI [2] [µM]	TGI [3] [µM]	TGI [4] [µM]	TGI [5] [µM]	TGI [6] [µM]	TGI [7] [µM]	TGI [8] [µM]	TGI [9] [µM]	GI50 [1] [µM]	GI50 [3] [µM]	GI50 [4] [µM]	GI50 [7] [µM]	TGI [10] [µM]	GI50 [2] [µM]	GI50 [5] [µM]	GI50 [6] [nM]	GI50 [8] [nM]	GI50 [9] [nM]
O=C(/C=C/c1ccc(Cl)cc1)c1nc2ccccc2[nH]1	> 100	16.6	83.3	36.3	50.1	36.2	50.6	> 100	70.5										
CCC/C=C/C=C\C(=O)O[C@@H]1[C@@H](C)[C@]2(O)[C@@H]3C=C(C)C(=O)[C@H]3CC(COC(C)=O)=C[C@H]2[C@@H]2C(C)(C)[C@]12OC(C)=O	97.6	36.2	105	57.5	33.8		83.5	114											
N#C/C(=C\c1ccccc1F)C(=O)c1ccccc1	> 100	> 100	> 100	> 100	> 100		> 100	> 100	> 100										
O=C(N/N=C/c1cc(Cl)cc(Cl)c1[O-])c1ccccc1O.O=C(N/N=C/c1cc(Cl)cc(Cl)c1[O-])c1ccccc1O.[Fe+2]	35.2	> 100	41.9	72.7	44.4		28	46.2	> 100	10.2	18.1	11.4	10.4						
Cc1ccc2nc(-c3nccn3C)cc(C(=O)NC(C)CN(C)C)c2c1 (stereo unspecified)	> 100		> 100	> 100	> 100	> 100	> 100	> 100	> 100					> 100					
Clc1ccc2c(c1)CC1C[N+]3=C(CCCCC3)C1=C2 (stereo unspecified)	> 100	> 100	> 100	> 100	> 100	> 100		> 100	> 100					> 100					
CC(Cn1c(=O)oc2ccccc21)N(C)C (stereo unspecified)		> 100	> 100	> 100	> 100	> 100	> 100	> 100	> 100					> 100					
O=C(Nc1ccccc1)c1cc2cc(CCl)ccc2oc1=O	> 100	> 100	> 100	> 100	> 100	> 100		> 100	> 100										
CN(CCO)c1nc(=O)c2c(n1C1OC(CO)C(O)C(O)C1O)CCCC2 (stereo unspecified)	> 100	> 100	> 100	> 100	> 100		> 100	> 100	> 100										
CCOC(=O)C(C(=O)OCC)S(C)(=O)=O	> 100	> 100	> 100	> 100	> 100		> 100	> 100	> 100										
NCCCC(N)(C(=O)O)C(F)F (stereo unspecified)	> 5000	> 1580	> 1260	> 5000	> 5000		> 5000	> 5000											
COc1cc(Cn2c3ccccc3c3cc(C)cc(OC)c32)cc2c1[nH]c1ccccc12	> 25	> 25		> 25	17.4		> 25	> 25	> 25	23.2			9.83		12	6.63			
O=C1Nc2n[nH]c(=S)n2NC12c1ccccc1-c1ccccc12	> 100		> 100	93.6	> 100	37.4	> 100	> 100	> 100					> 100					
CC(=O)C(C(=O)C(=O)Nc1cc(Cl)c(Cl)cc1Cl)c1csc(N)n1 (stereo unspecified)	> 100	> 100	> 100	> 100	> 100		> 100	> 100	> 100										
CN(C)C1(N(C)C)Oc2c(c(=O)n(C)c(=O)n2C)C(c2ccc(F)cc2)C1(F)F (stereo unspecified)	> 100	> 100	> 100	> 100	> 100	> 100		> 100	> 100										
COc1cc2cnc3c4cc(O)ccc4ccc3c2cc1OC	> 100	> 100	> 100	> 100	> 100		> 100	> 100	> 100										
O=S1(=O)OCCOS(=O)(=O)C1(Br)Br	> 100	> 100	> 100	> 100	> 100		> 100	> 100	> 100										
C[C@@]12C[C@@H](c3ccccc3O1)N1CCCSC1=N2		> 100	> 100	> 100	> 100	> 100	> 100	> 100	> 100					> 100					
COc1ccccc1NC(=O)C(=O)C(c1cnc2ccc([N+](=O)[O-])cc2n1)[N+](=O)[O-] (stereo unspecified)	> 100	> 100	> 100	> 100	> 100		> 100	> 100	> 100										
C/C(CC(=O)Nc1cccc([N+](=O)[O-])c1)=N/NC(N)=S	> 100	> 100	> 100	> 100	> 100		> 100		> 100										
O=C1CS(=O)c2ccccc2N1 (stereo unspecified)	> 100	> 100	> 100	> 100	> 100		> 100	> 100	> 100										
CCOC(=O)NC(C(F)(F)F)(C(F)(F)F)P(=O)(OCC)OCC		> 100		> 100	> 100	> 100		> 100	> 100					> 100					
Cn1cc(-c2csc(-c3cn(CCCN4CCCCC4)c4ccc(Br)cc34)n2)c2cccnc21						3.16	3.2	3.31	3.16				1.75				1740	1830	1690
S=C1C(CCCOCc2ccccc2)C2CCCC23CC2(CCN13)OCCS2 (stereo unspecified)		> 10	> 10		> 10	> 10	> 10	> 10	> 10					> 10					
